Results from patent publication US9096624B2 (OSI Pharmaceuticals, LLC, priority 2009, dated 2015).

Assays:
FAK [1] = target: T1, FAK (Homo sapiens, UniProt Q05397); test: Cell-based capture ELISA for inhibition of FAK autophosphorylation [pY397] in MiaPaCa2 cells
Procedure: Cell-Based Assays for Inhibition of FAK Autophosphorylation: MiaPaCa2 and U87MG
ELISA kit from Invitrogen (KHO0441).
Reagents Provided in Biosource FAK [pY397]
The cells were then suspended in cell assay medium.

FAK [2] = target: T1, FAK; test: biochemical
[3] = MIA-PaCa2 cells on fibronectin, 2 h, no plasma, read-out: Mean FAK Cell Mechanistic IC50 MIA-PaCa2
[4] = MIA-PaCa2 cells, + 50% human plasma, read-out: Mean FAK Cell Mechanistic IC50 + 50% hP MIA-PaCa2
[5] = MIA-PaCa2 cells, + 50% mouse plasma (Table 2), read-out: Mean FAK Cell Mechanistic IC50 + 50% mP MIA-PaCa2

T1 sequence (Q05397 whole entry): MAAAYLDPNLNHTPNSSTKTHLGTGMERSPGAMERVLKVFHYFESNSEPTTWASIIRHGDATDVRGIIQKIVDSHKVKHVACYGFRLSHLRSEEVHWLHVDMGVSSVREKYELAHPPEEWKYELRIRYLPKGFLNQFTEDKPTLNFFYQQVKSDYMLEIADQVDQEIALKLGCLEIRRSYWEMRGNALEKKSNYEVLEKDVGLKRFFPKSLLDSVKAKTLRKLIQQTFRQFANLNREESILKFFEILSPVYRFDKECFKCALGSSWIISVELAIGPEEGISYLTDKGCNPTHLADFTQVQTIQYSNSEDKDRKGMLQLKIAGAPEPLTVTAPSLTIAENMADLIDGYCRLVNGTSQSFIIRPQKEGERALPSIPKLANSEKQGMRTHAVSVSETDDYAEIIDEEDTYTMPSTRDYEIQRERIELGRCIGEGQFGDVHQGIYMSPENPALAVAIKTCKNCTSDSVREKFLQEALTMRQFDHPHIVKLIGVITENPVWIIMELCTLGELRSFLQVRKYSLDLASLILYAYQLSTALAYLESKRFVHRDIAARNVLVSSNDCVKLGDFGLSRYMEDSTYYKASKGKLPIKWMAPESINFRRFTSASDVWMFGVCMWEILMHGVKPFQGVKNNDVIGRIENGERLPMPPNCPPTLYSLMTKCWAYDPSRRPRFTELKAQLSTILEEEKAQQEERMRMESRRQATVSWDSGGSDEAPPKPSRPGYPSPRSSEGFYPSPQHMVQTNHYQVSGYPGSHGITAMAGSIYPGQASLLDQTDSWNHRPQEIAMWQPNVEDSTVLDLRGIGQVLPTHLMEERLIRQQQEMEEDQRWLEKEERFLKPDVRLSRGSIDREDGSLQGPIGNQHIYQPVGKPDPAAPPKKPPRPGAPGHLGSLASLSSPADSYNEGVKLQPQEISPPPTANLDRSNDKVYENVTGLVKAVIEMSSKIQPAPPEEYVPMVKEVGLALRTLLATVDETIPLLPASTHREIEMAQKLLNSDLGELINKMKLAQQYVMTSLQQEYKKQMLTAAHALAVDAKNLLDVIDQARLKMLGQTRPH

Compound `CCP(=O)(CC)Cc1ccc(Nc2ncc(C(F)(F)F)c(NCc3cccnc3N(C)S(C)(=O)=O)n2)cc1` [Example 10, N-[3-({[2-({4-[(diethylphosphoryl)methyl]phenyl}amino)-5-(trifluoromethyl)pyrimidin-4-yl]amino}methyl)pyridin-2-yl]-N-methylmethanesulfonamide] has an IC50 (FAK [1]; [3]) of less than 1 µM, an IC50 (FAK [1]; [4]) of less than 1 µM and an IC50 (FAK [1]; [5]) of less than 1 µM. For the same compound, the IC50 (FAK [2]) was less than 1 µM.
With `CCP(=O)(CC)Cc1cccc(Nc2ncc(C(F)(F)F)c(NCc3cccnc3N(C)S(C)(=O)=O)n2)c1` [Example 11, N-[3-({[2-({3-[(Diethylphosphoryl)methyl]phenyl}amino)-5-(trifluoromethyl)pyrimidin-4-yl]amino}methyl)pyridin-2-yl]-N-methylmethanesulfonamide] the IC50 (FAK [1]; [3]) was less than 1 µM, the IC50 (FAK [1]; [4]) was less than 1 µM and the IC50 (FAK [1]; [5]) was less than 1 µM. For the same compound, the IC50 (FAK [2]) was less than 1 µM.
Work on `CN(c1ncccc1CNc1nc(Nc2ccc(CP(C)(C)=O)cc2)ncc1C(F)(F)F)S(C)(=O)=O` [Example 12, N-[3-({[2-({4-[(Dimethylphosphoryl)methyl]phenyl}amino)-5-(trifluoromethyl)pyrimidin-4-yl]amino}methyl)pyridin-2-yl]-N-methylmethanesulfonamide] yielded an IC50 (FAK [1]; [3]) of 1 to 10 µM, an IC50 (FAK [1]; [4]) of 1 to 10 µM and an IC50 (FAK [1]; [5]) of 1 to 10 µM. For the same compound, the IC50 (FAK [2]) was less than 1 µM.
Compound `CN(c1ncccc1CNc1nc(Nc2cccc(CP(C)(C)=O)c2)ncc1C(F)(F)F)S(C)(=O)=O` [Example 13, N-[3-({[2-({3-[(Dimethylphosphoryl)methyl]phenyl}amino)-5-(trifluoromethyl)pyrimidin-4-yl]amino}methyl)pyridin-2-yl]-N-methylmethanesulfonamide] has an IC50 (FAK [1]; [3]) of less than 1 µM, an IC50 (FAK [1]; [4]) of less than 1 µM and an IC50 (FAK [1]; [5]) of less than 1 µM. For the same compound, the IC50 (FAK [2]) was less than 1 µM.
`CN(c1ncccc1CNc1nc(Nc2ccc(P(C)(C)=O)cc2)ncc1C(F)(F)F)S(C)(=O)=O` [Example 14, N-[3-({[2-{[4-(Dimethylphosphoryl)phenyl]amino}-5-(trifluoromethyl)pyrimidin-4-yl]amino}methyl)pyridin-2-yl]-N-methylmethanesulfonamide] gave an IC50 (FAK [1]; [3]) of less than 1 µM, an IC50 (FAK [1]; [4]) of less than 1 µM and an IC50 (FAK [1]; [5]) of less than 1 µM. For the same compound, the IC50 (FAK [2]) was less than 1 µM.
In the case of `CN(c1ncccc1CNc1nc(Nc2cccc(P(C)(C)=O)c2)ncc1C(F)(F)F)S(C)(=O)=O` [Example 15, N-[3-({[2-{[3-(Dimethylphosphoryl)phenyl]amino}-5-(trifluoromethyl)pyrimidin-4-yl]amino}methyl)pyridin-2-yl]-N-methylmethanesulfonamide], the IC50 (FAK [1]; [3]) is reported as less than 1 µM, the IC50 (FAK [1]; [4]) is reported as less than 1 µM and the IC50 (FAK [1]; [5]) is reported as less than 1 µM. The IC50 (FAK [2]) was less than 1 µM.
In the case of `CNC(=O)c1ccccc1Nc1nc(Nc2ccc(CP(C)(C)=O)cc2)ncc1C(F)(F)F` [Example 16, 2-{[2-({4-[(Dimethylphosphoryl)methyl]phenyl}amino)-5-(trifluoromethyl)pyrimidin-4-yl]amino}-N-methylbenzamide], the IC50 (FAK [1]; [3]) is reported as less than 1 µM, the IC50 (FAK [1]; [4]) is reported as less than 1 µM and the IC50 (FAK [1]; [5]) is reported as less than 1 µM. The IC50 (FAK [2]) was less than 1 µM.
`CNC(=O)c1ccccc1Nc1nc(Nc2cccc(CP(C)(C)=O)c2)ncc1C(F)(F)F` [Example 17, 2-{2-[3-(Dimethylphosphinoylmethyl)phenylamino]-5-trifluoromethylpyrimidin-4-ylamino}-N-methylbenzamide] showed an IC50 (FAK [1]; [3]) of less than 1 µM, an IC50 (FAK [1]; [4]) of less than 1 µM and an IC50 (FAK [1]; [5]) of less than 1 µM. The IC50 (FAK [2]) was less than 1 µM.
Work on `CNC(=O)c1ccccc1Nc1nc(Nc2ccc(P(C)(C)=O)cc2)ncc1C(F)(F)F` [Example 18, 2-{[2-{[4-(Dimethylphosphoryl)phenyl]amino}-5-(trifluoromethyl)pyrimidin-4-yl]amino}-N-methylbenzamide] yielded an IC50 (FAK [1]; [3]) of less than 1 µM, an IC50 (FAK [1]; [4]) of less than 1 µM and an IC50 (FAK [1]; [5]) of less than 1 µM. It also gave an IC50 (FAK [2]) of less than 1 µM.
In the case of `CCOP(=O)(Cc1ccc(Nc2ncc(C(F)(F)F)c(Nc3ccccc3C(=O)NC)n2)cc1)OCC` [Example 20, diethyl (4-{[4-{[2-(methylcarbamoyl)phenyl]amino}-5-(trifluoromethyl)pyrimidin-2-yl]amino}benzyl)phosphonate], the IC50 (FAK [1]; [3]) is reported as less than 1 µM, the IC50 (FAK [1]; [4]) is reported as less than 1 µM and the IC50 (FAK [2]) is reported as less than 1 µM.
`CCOP(=O)(OCC)C(C)(C)c1ccc(Nc2ncc(C(F)(F)F)c(Nc3ccccc3C(=O)NC)n2)cc1` [Example 21, Diethyl [2-(4-{[4-{[2-(methylcarbamoyl)phenyl]amino}-5-(trifluoromethyl)pyrimidin-2-yl]amino}phenyl)propan-2-yl]phosphonate] was tested, and the IC50 (FAK [1]; [3]) was less than 1 µM, the IC50 (FAK [1]; [4]) was less than 1 µM and the IC50 (FAK [2]) was less than 1 µM.
Work on `CCOP(C)(=O)Cc1ccc(Nc2ncc(C(F)(F)F)c(Nc3ccccc3C(=O)NC)n2)cc1` (stereo not shown) [Example 22, Ethyl methyl(4-{[4-{[2-(methylcarbamoyl)phenyl]amino}-5-(trifluoromethyl)pyrimidin-2-yl]amino}benzyl)phosphinate] yielded an IC50 (FAK [1]; [3]) of less than 1 µM, an IC50 (FAK [1]; [4]) of less than 1 µM and an IC50 (FAK [2]) of less than 1 µM.
In the case of `CCP(=O)(CC)Cc1cccc(Nc2ncc(C(F)(F)F)c(Nc3ccccc3C(=O)NC)n2)c1` [Example 23, 2-{[2-({3-[(Diethylphosphoryl)methyl]phenyl}amino)-5-(trifluoromethyl)pyrimidin-4-yl]amino}-N-methylbenzamide], the IC50 (FAK [1]; [3]) is reported as less than 1 µM, the IC50 (FAK [1]; [4]) is reported as less than 1 µM and the IC50 (FAK [1]; [5]) is reported as less than 1 µM. For the same compound, the IC50 (FAK [2]) was less than 1 µM.
`CCP(=O)(CC)Cc1ccc(Nc2ncc(C(F)(F)F)c(Nc3ccccc3C(=O)NC)n2)cc1` [Example 24, 2-{[2-({4-[(Diethylphosphoryl)methyl]phenyl}amino)-5-(trifluoromethyl)pyrimidin-4-yl]amino}-N-methylbenzamide] showed an IC50 (FAK [1]; [3]) of less than 1 µM, an IC50 (FAK [1]; [4]) of less than 1 µM and an IC50 (FAK [1]; [5]) of less than 1 µM. The IC50 (FAK [2]) was less than 1 µM.
For `CCOP(=O)(Cc1ccc(Nc2ncc(C(F)(F)F)c(NCc3cccc(S(C)(=O)=O)c3)n2)cc1)OCC` [Example 25, diethyl (4-{[4-{[3-(methylsulfonyl)benzyl]amino}-5-(trifluoromethyl)pyrimidin-2-yl]amino}benzyl)phosphonate], the IC50 (FAK [1]; [5]) was 1 to 10 µM and the IC50 (FAK [2]) was less than 1 µM.
`CCCCOP(=O)(Cc1ccc(Nc2ncc(C(F)(F)F)c(NCc3cccnc3N(C)S(C)(=O)=O)n2)cc1)OCCCC` [Example 26, Dibutyl [4-({4-[({2-[methyl(methylsulfonyl)amino]pyridin-3-yl}methyl)amino]-5-(trifluoromethyl)pyrimidin-2-yl}amino)benzyl]phosphonate] gave an IC50 (FAK [1]; [3]) of less than 1 µM, an IC50 (FAK [1]; [4]) of less than 1 µM and an IC50 (FAK [1]; [5]) of 1 to 10 µM. For the same compound, the IC50 (FAK [2]) was less than 1 µM.
`CCCOP(=O)(Cc1ccc(Nc2ncc(C(F)(F)F)c(NCc3cccnc3N(C)S(C)(=O)=O)n2)cc1)OCCC` [Example 28, dipropyl [4-({4-[({2-[methyl(methylsulfonyl)amino]pyridin-3-yl}methyl)amino]-5-(trifluoromethyl)pyrimidin-2-yl}amino)benzyl]phosphonate] showed an IC50 (FAK [1]; [3]) of less than 1 µM, an IC50 (FAK [1]; [4]) of less than 1 µM and an IC50 (FAK [1]; [5]) of less than 1 µM. It also gave an IC50 (FAK [2]) of less than 1 µM.
Work on `CCC(C)OP(=O)(Cc1ccc(Nc2ncc(C(F)(F)F)c(NCc3cccnc3N(C)S(C)(=O)=O)n2)cc1)OC(C)CC` (stereo not shown) [Example 29, dibutan-2-yl [4-({4-[({2-[methyl(methylsulfonyl)amino]pyridin-3-yl}methyl)amino]-5-(trifluoromethyl)pyrimidin-2-yl}amino)benzyl]phosphonate] yielded an IC50 (FAK [1]; [3]) of less than 1 µM, an IC50 (FAK [1]; [4]) of 1 to 10 µM and an IC50 (FAK [1]; [5]) of 1 to 10 µM. For the same compound, the IC50 (FAK [2]) was less than 1 µM.
Work on `CC(C)COP(=O)(Cc1ccc(Nc2ncc(C(F)(F)F)c(NCc3cccnc3N(C)S(C)(=O)=O)n2)cc1)OCC(C)C` [Example 30, bis(2-methylpropyl) [4-({4-[({2-[methyl(methylsulfonyl)amino]pyridin-3-yl}methyl)amino]-5-(trifluoromethyl)pyrimidin-2-yl}amino)benzyl]phosphonate] yielded an IC50 (FAK [1]; [3]) of 1 to 10 µM, an IC50 (FAK [1]; [4]) of 1 to 10 µM and an IC50 (FAK [1]; [5]) of 1 to 10 µM. It also gave an IC50 (FAK [2]) of less than 1 µM.
`CN(c1ncccc1CNc1nc(Nc2ccc(CP3(=O)OCCCO3)cc2)ncc1C(F)(F)F)S(C)(=O)=O` [Example 31, N-methyl-N-[3-({[2-({4-[(2-oxido-1,3,2-dioxaphosphinan-2-yl)methyl]phenyl}amino)-5-(trifluoromethyl)pyrimidin-4-yl]amino}methyl)pyridin-2-yl]methanesulfonamide] was tested, and the IC50 (FAK [1]; [3]) was less than 1 µM, the IC50 (FAK [1]; [4]) was less than 1 µM and the IC50 (FAK [1]; [5]) was less than 1 µM. For the same compound, the IC50 (FAK [2]) was less than 1 µM.
In the case of `CN(c1ncccc1CNc1nc(Nc2ccc(CP3(=O)OCC(C)(C)CO3)cc2)ncc1C(F)(F)F)S(C)(=O)=O` [Example 32, N-[3-({[2-({4-[(5,5-dimethyl-2-oxido-1,3,2-dioxaphosphinan-2-yl)methyl]phenyl}amino)-5-(trifluoromethyl)pyrimidin-4-yl]amino}methyl)pyridin-2-yl]-N-methylmethanesulfonamide], the IC50 (FAK [1]; [3]) is reported as less than 1 µM, the IC50 (FAK [1]; [4]) is reported as less than 1 µM and the IC50 (FAK [1]; [5]) is reported as less than 1 µM. It also gave an IC50 (FAK [2]) of less than 1 µM.
In the case of `CN(c1ncccc1CNc1nc(Nc2ccc(CP(=O)(OCCc3ccsc3)OCCc3ccsc3)cc2)ncc1C(F)(F)F)S(C)(=O)=O` [Example 33, bis[2-(thiophen-3-yl)ethyl] [4-({4-[({2-[methyl(methylsulfonyl)amino]pyridin-3-yl}methyl)amino]-5-(trifluoromethyl)pyrimidin-2-yl}amino)benzyl]phosphonate], the IC50 (FAK [1]; [5]) is reported as greater than 10 µM and the IC50 (FAK [2]) is reported as less than 1 µM.
`CN(c1ncccc1CNc1nc(Nc2ccc(CP(=O)(OCC3CCC3)OCC3CCC3)cc2)ncc1C(F)(F)F)S(C)(=O)=O` [Example 34, bis(cyclobutylmethyl) [4-({4-[({2-[methyl(methylsulfonyl)amino]pyridin-3-yl}methyl)amino]-5-(trifluoromethyl)pyrimidin-2-yl}amino)benzyl]phosphonate] showed an IC50 (FAK [1]; [5]) of 1 to 10 µM and an IC50 (FAK [2]) of less than 1 µM.
Work on `CC(C)OP(=O)(Cc1cccc(Nc2ncc(C(F)(F)F)c(NCc3cccnc3N(C)S(C)(=O)=O)n2)c1)OC(C)C` [Example 35, Dipropan-2-yl [3-({4-[({2-[methyl(methylsulfonyl)amino]pyridin-3-yl}methyl)amino]-5-(trifluoromethyl)pyrimidin-2-yl}amino)benzyl]phosphonate] yielded an IC50 (FAK [1]; [5]) of 1 to 10 µM and an IC50 (FAK [2]) of less than 1 µM.
